This note sets out measurements from patent publication US10647699B2, “Substituted 2-oxyimidazolylcarboxamides as pesticides” (Bayer CropScience Aktiengesellschaft, priority 2016, dated 2020).

Data set [1] in a line: log P by HPLC on reversed-phase columns (OECD Guideline 117), neutral range. It counts as physicochemical.
Data set [2] concerns Myzus persicae. As to the kind of experiment: Myzus persicae oral test (MYZUPE O). It counts as in vivo.
The subject of data set [3] is Myzus persicae. Nature of the data set: Myzus persicae spray test on bell pepper plants. It counts as in vivo. The following applies: after 6 days, application rate 20 ppm. How it is done: Myzus persicae-Spray Test
(§1) Solvent: 14 parts by weight of dimethylformamide
(§2) Emulsifier: alkylaryl polyglycol ether
(§3) To produce a suitable preparation of active compound, 1 part by weight of active compound is dissolved using the specified parts by weight of solvent and made up with water containing an emulsifier concentration of 1000 ppm until the desired concentration is attained. To produce further test concentrations, the formulation is diluted with emulsifier-containing water. If the addition of ammonium salts or/and penetrants is required, these are each added in a concentration of 1000 ppm to the formulation solution.
Bell pepper plants (Capsicum annuum) severely infested with the green peach aphid (Myzus persicae) are treated by spraying with the active compound formulation in the desired concentration.
After 6 days, the kill in % is determined. 100% means that all of the aphids have been killed; 0% means that none of the aphids have been killed.

Another data set deals with Boophilus microplus. Nature of the data set: Boophilus microplus injection test. Type of data set: in vivo. The following applies: 20 μg/animal, assessed after 7 days. The procedure: Boophilus microplus—Injection Test Solvent: dimethyl sulphoxide To produce a suitable preparation of active compound, 10 mg of active compound are mixed with 0.5 ml of solvent and the concentrate is diluted with solvent to the desired concentration. […] The animals are transferred into dishes and kept in a climate-controlled room. Efficacy is assessed after 7 days by laying of fertile eggs. Eggs which are not visibly fertile are stored in a climate-controlled cabinet until the larvae hatch after about 42 days.

The next data set deals with Aphis gossypii. As to the kind of experiment: Aphis gossypii spray test on cotton plants. Type of data set: in vivo. As to conditions: after 6 days, application rate 20 ppm, cotton plants. How it is done: Aphis gossypii—Spray Test
as §1, §2, §3
Cotton plants (Gossypium hirsutum) which are heavily infested by the cotton aphid (Aphis gossypii) are sprayed with an active compound formulation of the desired concentration.
After 6 days, the kill in % is determined. 100% means that all the aphids have been killed; 0% means that no aphids have been killed.

In data set [4] the test system is Myzus persicae. Nature of the data set: Myzus persicae spray test (MYZUPE), Chinese cabbage leaf discs. The following applies: after 5 days, application rate 500 g/ha. It counts as in vivo.
The next data set relates to Tetranychus urticae. As to the kind of experiment: Tetranychus urticae spray test, OP-resistant, bean leaf discs. The following applies: after 6 days, application rate 500 g/ha. Type of data set: in vivo. The procedure:
Tetranychus urticae—Spray Test, OP-Resistant
To produce a suitable preparation of active compound, 1 part by weight of active compound is dissolved using the specified parts by weight of solvent and made up with water containing an emulsifier concentration of 1000 ppm until the desired concentration is attained. To produce further test concentrations, the formulation is diluted with emulsifier-containing water.
Discs of bean leaves (Phaseolus vulgaris) infested with all stages of the greenhouse red spider mite (Tetranychus urticae) are sprayed with an active compound formulation of the desired concentration.
After 6 days, the efficacy in % is determined. 100% means that all the spider mites have been killed; 0% means that no spider mites have been killed.

The mark [5] stands for this setting: after 5 days, application rate 20 ppm.

As to `CC(C)Oc1ncc(C(=O)N(C)c2cccnc2)n1C` [Example II-1], the chromatographic logP in data set [1] (reversed-phase (C18) HPLC column, HPLC, neutral range pH 7.8, read-out: LogP-neutral) is 1.47. Besides, in the data set with Myzus persicae [2] (Myzus persicae, po, 120 h, MYZUPE O, 0.8 ppm, 5 dat, read-out: % efficacy), the Emax at 0.8 ppm was 90%. Further, the Emax at 4 ppm in the data set on Myzus persicae [2] (Myzus persicae, po, 120 h, MYZUPE O, 4 ppm, 5 dat, read-out: % efficacy) came out at 100%. In addition, the pest or weed control at 20 ppm in the data set with Myzus persicae [2] (Myzus persicae, po, 120 h, after 5 days, application rate 20 ppm, read-out: efficacy) turned out to be 100%; with Aphis gossypii (Aphis gossypii, 144 h, read-out: efficacy (kill)), 100%. Besides, in the data set with Myzus persicae [3], the “efficacy (kill)” value was 100%. In addition, the “efficacy (no fertile eggs laid)” value with Boophilus microplus came to 100%.
Take `CN(C(=O)c1cnc(Oc2ccc(F)cc2)n1C)c1cccnc1` [Example II-19]: the LogP-neutral in data set [1] (HPLC, neutral range pH 7.8) was determined as 1.76. For the same compound, the efficacy with Myzus persicae [2] (setting [5]) came out at 100%. The “efficacy (kill)” value is listed as 95% in the data set with Myzus persicae [3] and 100% in the data set on Aphis gossypii.
Regarding `C=CCOc1ncc(C(=O)N(C)c2cccnc2)n1C` [Example II-37], the efficacy with Myzus persicae [4] worked out at 100%; in the data set on Myzus persicae [2] (setting [5]), 100%; in the data set on Tetranychus urticae, 90%. This compound gave a LogP-neutral in data set [1] (pH 7.8) of 1.38. In addition, the “efficacy (kill)” value in the data set on Aphis gossypii turned out to be 100%.
Consider `CN(C(=O)c1cnc(Oc2ccc(F)nc2)n1C)c1cccnc1` [Example II-40], for which the efficacy in the data set on Myzus persicae [4] and in the data set on Myzus persicae [2] (setting [5]) was 100% each time. The compound also showed a LogP-neutral in data set [1] (HPLC, neutral range pH 7.8) of 1.33. For the same compound, in the data set on Boophilus microplus, the “efficacy (no fertile eggs laid)” value is listed as 80%. Further, the “efficacy (kill)” value in the data set with Aphis gossypii is on record as 100%.
Compound `CN(C(=O)c1cnc(Oc2ccc(Oc3ccc(Cl)nc3)nc2)n1C)c1cccnc1` [Example II-45] returned an efficacy in the data set with Myzus persicae [2] (setting [5]) of 100%. Also, the “efficacy (kill)” value in the data set with Myzus persicae [3] is listed as 98%; in the data set on Aphis gossypii, 99%.
